Measurements published in patent US20140005163A1 (NOVARTIS AG, priority 2010, published 2014).

Columns and labels:
[1] = tested on: PKB Ser473 phosphorylation in Rat1-myr-HA-p110 delta cells; assay: Reverse protein array assay, PKB Ser473 phosphorylation in Rat1-myr-p110 delta cells; format: cell-based; settings: read-out: p-PKB IC50
In short: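 Measured: PKB Ser473 phosphorylation by reverse protein array in Rat1 cells expressing myr-HA-p110 alpha, beta or delta, after 30 min compound treatment at 37 °C with 0.2% DMSO vehicle.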

[2] = tested on: S6 Ribosomal Protein phosphorylation Ser235/236 in TSC1 null mouse embryo fibroblast (MEF) cells; assay: Reverse protein array assay, S6 Ribosomal Protein phosphorylation Ser235/236 in TSC1 null MEF cells; format: cell-based; settings: 1 h, pS6 ribosomal protein Ser235/236, 60 minutes incubation, read-out: p-S6 IC50
In short: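 TSC1−/− MEFs, seeded and held ≥20 h at 37 °C/5% CO2, were exposed to 8-step serial compound dilutions (0.02% DMSO final; DMSO vehicle control) for 60 min at 37 °C. Cells were then lysed on ice for 10 min and lysates spotted onto reverse protein array chips.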

[3] = target: T1, mTOR (Homo sapiens, UniProt P42345); assay: Biochemical assay for m-TOR by TR-FRET; settings: 8 μM ATP, 400 nM GFP-4EBP1, 0.5 nM mTOR
T1 construct: purchased Invitrogen Corporation (Carlsbad/CA, USA) PV4753
In short: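 Steps: ATP (8 μM final) plus GFP-4EBP1 (400 nM final) combined with mTOR (0.5 nM final), incubated at rt; buffer HEPES pH 7.5 with 10 mM MnCl2, NaCl, EGTA, DTT. Then stopped with EDTA/Tb3+-anti-p4EBP1 pT46 Ab (0.5 nM). Plates read after 15 min.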

T1 sequence (P42345 1360-2549 limits assumed): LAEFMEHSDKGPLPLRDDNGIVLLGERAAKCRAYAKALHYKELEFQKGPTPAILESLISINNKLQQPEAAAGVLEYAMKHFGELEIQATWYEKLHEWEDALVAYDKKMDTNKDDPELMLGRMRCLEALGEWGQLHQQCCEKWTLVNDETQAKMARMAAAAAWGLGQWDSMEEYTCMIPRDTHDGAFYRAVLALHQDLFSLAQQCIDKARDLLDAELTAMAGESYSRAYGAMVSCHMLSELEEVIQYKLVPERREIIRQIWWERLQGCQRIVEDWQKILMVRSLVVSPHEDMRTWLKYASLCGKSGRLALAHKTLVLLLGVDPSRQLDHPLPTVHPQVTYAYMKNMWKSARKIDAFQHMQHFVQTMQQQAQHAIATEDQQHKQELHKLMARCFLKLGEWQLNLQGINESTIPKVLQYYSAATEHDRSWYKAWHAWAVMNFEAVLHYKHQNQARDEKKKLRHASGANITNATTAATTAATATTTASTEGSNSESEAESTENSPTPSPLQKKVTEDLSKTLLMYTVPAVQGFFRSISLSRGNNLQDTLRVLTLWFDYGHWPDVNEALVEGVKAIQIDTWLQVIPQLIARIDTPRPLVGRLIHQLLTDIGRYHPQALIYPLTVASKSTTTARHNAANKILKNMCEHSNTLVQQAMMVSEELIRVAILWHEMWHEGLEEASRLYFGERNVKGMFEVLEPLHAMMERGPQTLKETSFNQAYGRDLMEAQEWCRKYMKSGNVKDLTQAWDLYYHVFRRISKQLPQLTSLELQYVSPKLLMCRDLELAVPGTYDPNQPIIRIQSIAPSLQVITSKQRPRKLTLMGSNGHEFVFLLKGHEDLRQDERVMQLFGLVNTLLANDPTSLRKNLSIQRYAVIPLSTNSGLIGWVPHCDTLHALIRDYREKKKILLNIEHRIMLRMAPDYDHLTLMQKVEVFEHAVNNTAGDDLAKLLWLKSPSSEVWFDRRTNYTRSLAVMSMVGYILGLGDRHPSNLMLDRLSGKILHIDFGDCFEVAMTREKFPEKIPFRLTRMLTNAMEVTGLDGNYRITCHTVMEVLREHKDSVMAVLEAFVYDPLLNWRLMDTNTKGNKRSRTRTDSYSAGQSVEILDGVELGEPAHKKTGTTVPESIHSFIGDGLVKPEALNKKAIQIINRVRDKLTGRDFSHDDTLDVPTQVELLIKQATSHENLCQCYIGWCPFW

Row | IC50 [1] [nM] | IC50 [3] [nM] | SMILES | IC50 [2] [nM]
1 | 213 | 7 | Cc1nn(C(C)C)cc1-n1c(=O)n(C)c2cnc3ccc(-c4cncc(N)c4)cc3c21 [Example 45.3, 8-(5-Amino-pyridin-3-yl)-1-(1-isopropyl-3-methyl-1H-pyrazol-4-yl)-3-methyl-1,3-dihydro-imidazo[4,5-c]quinolin-2-one] | 46
2 | 29 | 11 | Cc1nn(C)cc1-n1c(=O)n(C)c2cnc3ccc(-c4ccc(-n5cccn5)cc4)cc3c21 [Example 51.1, 1-(1,3-Dimethyl-1H-pyrazol-4-yl)-3-methyl-8-(4-pyrazol-1-yl-phenyl)-1,3-dihydro-imidazo[4,5-c]quinolin-2-one] | 5
3 | 468 | 52 | CCOc1cncc(-c2ccc3ncc4c(c3c2)n(-c2cn(CC(=O)N(C)C)nc2C)c(=O)n4C)c1 [Example 56.2, 2-{4-[8-(5-Ethoxy-pyridin-3-yl)-3-methyl-2-oxo-2,3-dihydro-imidazo[4,5-c]quinolin-1-yl]-3-methyl-pyrazol-1-yl}-N,N-dimethyl-acetamide] | 10
4 | 577 | 566 | Cc1cnn(C)c1-n1c(=O)n(C)c2cnc3ccc(-c4cncc(OC(C)C)c4)cc3c21 [Example 58.3, 1-(2,4-Dimethyl-2H-pyrazol-3-yl)-8-(5-isopropoxy-pyridin-3-yl)-3-methyl-1,3-dihydro-imidazo[4,5-c]quinolin-2-one] | 174
5 | 69 | 26 | COCCOc1cncc(-c2ccc3ncc4c(c3c2)n(-c2cn(C)nc2Cl)c(=O)n4C)c1 [Example 59.2, 1-(3-Chloro-1-methyl-1H-pyrazol-4-yl)-8-[5-(2-methoxy-ethoxy)-pyridin-3-yl]-3-methyl-1,3-dihydro-imidazo[4,5-c]quinolin-2-one] | 1
6 | 356 | 306 | CCOc1ncc(-c2ccc3ncc4c(c3c2)n(-c2cn(C)nc2C)c(=O)n4C)cc1N(C)C(C)=O [Example 63, N-{5-[1-(1,3-Dimethyl-1H-pyrazol-4-yl)-3-methyl-2-oxo-2,3-dihydro-1H-imidazo[4,5-c]quinolin-8-yl]-2-ethoxy-pyridin-3-yl}-N-methyl-acetamide] | 13.4
7 | 102 | 58 | CCOc1ncc(-c2ccc3ncc4c(c3c2)n(-c2cn(C)nc2C)c(=O)n4C)cc1NC(C)=O [Example 65, N-{5-[1-(1,3-Dimethyl-1H-pyrazol-4-yl)-3-methyl-2-oxo-2,3-dihydro-1H-imidazo[4,5-c]quinolin-8-yl]-2-ethoxy-pyridin-3-yl}-acetamide] | 66
8 | 390 | 5 | Cc1ncc(-c2ccc3ncc4c(c3c2)n(-c2cn(C)nc2C)c(=O)n4C)cc1NS(C)(=O)=O [Example 76, N-{5-[1-(1,3-Dimethyl-1H-pyrazol-4-yl)-3-methyl-2-oxo-2,3-dihydro-1H-imidazo[4,5-c]quinolin-8-yl]-2-methyl-pyridin-3-yl}-methanesulfonamide] | 200
9 | 749 | 329 | CCOc1cc(-c2ccc3ncc4c(c3c2)n(-c2c(C)nn(CC(=O)N(C)C)c2C)c(=O)n4C)cnc1C [Example 85.3, 2-{4-[8-(5-Ethoxy-6-methyl-pyridin-3-yl)-3-methyl-2-oxo-2,3-dihydro-imidazo[4,5-c]quinolin-1-yl]-3,5-dimethyl-pyrazol-1-yl}-N,N-dimethyl-acetamide] | 111
10 | < 5 | < 3 | CCNc1cc(-c2ccc3ncc4c(c3c2)n(-c2cn(C)nc2Cl)c(=O)n4C)cnc1C [Example 87.2, 1-(3-Chloro-1-methyl-1H-pyrazol-4-yl)-8-(5-ethylamino-6-methyl-pyridin-3-yl)-3-methyl-1,3-dihydro-imidazo[4,5-c]quinolin-2-one] | 1
11 | 7 | < 3 | CCNc1cc(-c2ccc3ncc4c(c3c2)n(-c2cn(CC)nc2C)c(=O)n4C)cnc1C [Example 87.3, 8-(5-Ethylamino-6-methyl-pyridin-3-yl)-1-(1-ethyl-3-methyl-1H-pyrazol-4-yl)-3-methyl-1,3-dihydro-imidazo[4,5-c]quinolin-2-one] | 6
12 | 7 | 3 | COc1ncc(-c2ccc3ncc4c(c3c2)n(-c2cn(C)nc2Cl)c(=O)n4C)cc1N [Example 89, 8-(5-Amino-6-methoxy-pyridin-3-yl)-1-(3-chloro-1-methyl-1H-pyrazol-4-yl)-3-methyl-1,3-dihydro-imidazo[4,5-c]quinolin-2-one] | < 0.5
13 | 42 | 20 | CCN(C)c1ccc(-c2ccc3ncc4c(c3c2)n(-c2cn(C)nc2C)c(=O)n4C)cn1 [Example 98.1, 1-(1,3-Dimethyl-1H-pyrazol-4-yl)-8-[6-(ethyl-methyl-amino)-pyridin-3-yl]-3-methyl-1,3-dihydro-imidazo[4,5-c]quinolin-2-one] | 3
14 | 43 | 6 | COC(=O)c1ccc(-c2ccc3ncc4c(c3c2)n(-c2cn(C)nc2C)c(=O)n4C)cn1 [Example 100, 5-[1-(1,3-Dimethyl-1H-pyrazol-4-yl)-3-methyl-2-oxo-2,3-dihydro-1H-imidazo[4,5-c]quinolin-8-yl]-pyridine-2-carboxylic acid methyl ester] | 4
15 | 401 | 60 | Cc1nn(C)cc1-n1c(=O)n(C)c2cnc3ccc(-c4ccc(OCCCO)nc4)cc3c21 [Example 108, 1-(1,3-Dimethyl-1H-pyrazol-4-yl)-8-[6-(3-hydroxy-propoxy)-pyridin-3-yl]-3-methyl-1,3-dihydro-imidazo[4,5-c]quinolin-2-one] | 17
16 | 120 | 11 | COc1ccc(-c2ccc3ncc4[nH]c(=O)n(-c5cn(C)nc5C)c4c3c2)cn1 [Example 109, 1-(1,3-Dimethyl-1H-pyrazol-4-yl)-8-(6-methoxy-pyridin-3-yl)-1,3-dihydro-imidazo[4,5-c]quinolin-2-one] | 11
17 | 34 | 15 | Cc1nn(C)cc1-n1c(=O)n(C)c2cnc3ccc(-c4cnc5c(ccn5C)c4)cc3c21 [Example 116, 1-(1,3-Dimethyl-1H-pyrazol-4-yl)-3-methyl-8-(1-methyl-1H-pyrrolo[2,3-b]pyridin-5-yl)-1,3-dihydro-imidazo[4,5-c]quinolin-2-one] | 6
18 | 91 | 51 | CNC(=O)c1cc(-c2ccc3ncc4c(c3c2)n(-c2cn(C)nc2C)c(=O)n4C)cnc1OC [Example 125.1, 5-[1-(1,3-Dimethyl-1H-pyrazol-4-yl)-3-methyl-2-oxo-2,3-dihydro-1H-imidazo[4,5-c]quinolin-8-yl]-2-methoxy-N-methyl-nicotinamide] | 2
19 | 266 | 97 | Cc1nn(C)cc1-n1c(=O)n(C)c2cnc3ccc(-c4ccc(N5CCNCC5)nc4)cc3c21 [Example 126, 1-(1,3-Dimethyl-1H-pyrazol-4-yl)-3-methyl-8-(6-piperazin-1-yl-pyridin-3-yl)-1,3-dihydro-imidazo[4,5-c]quinolin-2-one] | 5.33
